From US10160753B2, “Indazole compounds as IRAK4 inhibitors” (Aurigene Discovery Technologies Limited, priority 2014, dated 2018)
Structures can show the parent of a compound that is named as a salt.

target: T1, recombinant IRAK-4 kinase (Homo sapiens, UniProt Q9NWZ3); test: IRAK-4 Biochemical Assay (TR-FRET); settings: 30 min pre-incubation, 100 nM Biotin Histone H3, 20 μM ATP, read-out: IC50 values for IRAK4 activity
T1 construct: purchased Millipore, USA
T1 sequence (Q9NWZ3 1-460): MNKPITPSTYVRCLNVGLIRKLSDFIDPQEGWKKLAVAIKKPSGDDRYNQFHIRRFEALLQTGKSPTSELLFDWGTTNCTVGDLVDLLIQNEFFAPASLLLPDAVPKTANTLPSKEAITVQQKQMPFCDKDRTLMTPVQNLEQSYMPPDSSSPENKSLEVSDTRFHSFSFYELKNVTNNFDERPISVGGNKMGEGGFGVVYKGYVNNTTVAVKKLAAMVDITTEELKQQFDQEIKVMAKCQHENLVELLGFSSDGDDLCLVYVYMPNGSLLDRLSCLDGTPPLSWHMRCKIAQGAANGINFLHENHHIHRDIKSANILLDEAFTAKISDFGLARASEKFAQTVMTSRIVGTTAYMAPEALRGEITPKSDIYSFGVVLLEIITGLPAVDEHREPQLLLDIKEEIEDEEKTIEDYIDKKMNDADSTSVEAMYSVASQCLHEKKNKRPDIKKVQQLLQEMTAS
Description: Compounds were tested for their potential to inhibit IRAK-4 enzyme in a TR-FRET assay using recombinant IRAK-4 kinase from Millipore, USA. The assay buffer was 50 mM Tris-HCl pH 7.5, 20 mM MgCl2, 1 mM EGTA, 2 mM DTT, 3 mM MnCl2 and 0.01% Tween 20.5 ng of IRAK-4 kinase was used for the assay. After pre-incubation of enzyme with test compound for 30 minutes at room temperature, a substrate mixture containing 100 nM Biotin Histone H3 (Millipore, USA) and 20 μM ATP (Sigma, USA) was added and the reaction was incubated for 30 min. Post incubation, the reaction was stopped by the addition of stop mix containing 40 mM EDTA, 1 nM of Europium-Anti-Phospho-Histone H3 (Ser10) antibody (Perkin Elmer, USA) and 20 nM SureLight Allophycocyanin-Streptavidin (Perkin Elmer, USA). The fluorescence emission at 615 nm and 665 nm were measured at an excitation of 340 nm and the percent inhibition was estimated from the ratio of the fluorescence intensities [(F665/F615)×10000]. The compounds were initially screened at 1 μM and 10 μM concentrations and potent compounds (>50% inhibition at 1 μM) were taken for dose response studies. The IC50 values were estimated by fitting the dose-response data to sigmoidal dose response (variable slope), curve fitting program using Graphpad Prism software Version 6.01.

IC50 [µM]	SMILES
< 0.05	Cc1cnccc1-c1nc(C(=O)Nc2cc3cn(C)nc3cc2N2CCCCC2)co1 [Example 22, N-(2-methyl-6-(piperidin-1-yl)-2H-indazol-5-yl)-2-(3-methylpyridin-4-yl)oxazole-4-carboxamide]
< 0.05	Cn1cc2cc(NC(=O)c3cccc(Br)n3)c(N3CCCCC3)cc2n1 [Example 23, 6-bromo-N-(2-methyl-6-(piperidin-1-yl)-2H-indazol-5-yl)picolinamide]
< 0.05	Cc1ccc(C(=O)Nc2cc3cn(C)nc3cc2N2CCCCC2)nc1Cl [Example 24, 6-chloro-5-methyl-N-(2-methyl-6-(piperidin-1-yl)-2H-indazol-5-yl)picolinamide]
< 0.05	Cc1ccc(-c2nc(C(=O)Nc3cc4cn(C)nc4cc3N3CCCCC3)co2)cn1 [Example 25, N-(2-methyl-6-(piperidin-1-yl)-2H-indazol-5-yl)-2-(6-methylpyridin-3-yl)oxazole-4-carboxamide]
< 0.05	Cc1ncccc1-c1nc(C(=O)Nc2cc3cn(C4CCCC4)nc3cc2C2CC2)co1 [Example 26, N-(2-cyclopentyl-6-cyclopropyl-2H-indazol-5-yl)-2-(2-methylpyridin-3-yl)oxazole-4-carboxamide]
< 0.05	Cc1cnccc1-c1nc(C(=O)Nc2cc3cn(C4CCCC4)nc3cc2C2CC2)co1 [Example 27, N-(2-cyclopentyl-6-cyclopropyl-2H-indazol-5-yl)-2-(3-methylpyridin-4-yl)oxazole-4-carboxamide]
< 0.05	Cc1ccc(-c2nc(C(=O)Nc3cc4cn(C5CCCC5)nc4cc3C3CC3)co2)cn1 [Example 28, N-(2-cyclopentyl-6-cyclopropyl-2H-indazol-5-yl)-2-(6-methylpyridin-3-yl)oxazole-4-carboxamide]
< 0.05	Cc1ccc(C(=O)Nc2cc3cn(C)nc3cc2N2CCCCC2)nc1-c1ccc(N)nc1 [Example 29, 6′-amino-3-methyl-N-(2-methyl-6-(piperidin-1-yl)-2H-indazol-5-yl)-[2,3′-bipyridine]-6-carboxamide hydrochloride]
< 0.05	Cc1ccc(C(=O)Nc2cc3cn(C)nc3cc2N2CCCCC2)nc1-c1cnn(C)c1 [Example 30, 5-methyl-6-(1-methyl-1H-pyrazol-4-yl)-N-(2-methyl-6-(piperidin-1-yl)-2H-indazol-5-yl)picolinamide]
< 0.05	Cc1cc(-c2nc(C(=O)Nc3cc4cnn(C5CC5)c4cc3N3CCCCC3)co2)ccn1 [Example 31, N-(1-cyclopropyl-6-(piperidin-1-yl)-1H-indazol-5-yl)-2-(2-methylpyridin-4-yl)oxazole-4-carboxamide hydrochloride]
< 0.05	Cn1cc2cc(NC(=O)c3coc(-c4cccnc4O)n3)c(N3CCCCC3)cc2n1 [Example 32, 2-(2-hydroxypyridin-3-yl)-N-(2-methyl-6-(piperidin-1-yl)-2H-indazol-5-yl)oxazole-4-carboxamide]

More lines, now with the values behind:

SMILES	IC50 [µM]
Cn1cc2cc(NC(=O)c3cccc(-c4cn[nH]c4)n3)c(N3CCCCC3)cc2n1 [Example 1, N-(2-methyl-6-(piperidin-1-yl)-2H-indazol-5-yl)-6-(1H-pyrazol-4-yl) picolinamide]	< 0.05
Cc1cc(-c2nc(C(=O)Nc3cc4cn(C)nc4cc3N3CCCCC3)co2)ccn1 [Example 2, N-(2-methyl-6-(piperidin-1-yl)-2H-indazol-5-yl)-2-(2-methylpyridin-4-yl) oxazole-4-carboxamide]	< 0.05
Cc1cc(-c2nc(C(=O)Nc3cc4cnn(C)c4cc3N3CCCCC3)co2)ccn1 [Example 3, N-(1-methyl-6-(piperidin-1-yl)-1H-indazol-5-yl)-2-(2-methylpyridin-4-yl) oxazole-4-carboxamide]	< 0.05
Cc1cc(-c2nc(C(=O)Nc3cc4cn(C5CCCC5)nc4cc3N3CCCCC3)co2)ccn1 [Example 4, N-(2-cyclopentyl-6-(piperidin-1-yl)-2H-indazol-5-yl)-2-(2-methylpyridin-4-yl) oxazole-4-carboxamide]	< 0.05
Cc1cc(-c2nc(C(=O)Nc3cc4cn(C5CCCC5)nc4cc3C#N)co2)ccn1 [Example 5, N-(6-cyano-2-cyclopentyl-2H-indazol-5-yl)-2-(2-methylpyridin-4-yl) oxazole-4-carboxamide]	< 0.05
Cc1cc(-c2nc(C(=O)Nc3cc4cn(C5CCCC5)nc4cc3C3CC3)co2)ccn1 [Example 6, N-(2-cyclopentyl-6-cyclopropyl-2H-indazol-5-yl)-2-(2-methylpyridin-4-yl) oxazole-4-carboxamide]	< 0.05
O=C(Nc1cc2cn(C3CCCC3)nc2cc1C1CC1)c1cccc(-c2cn[nH]c2)n1 [Example 7, N-(2-cyclopentyl-6-cyclopropyl-2H-indazol-5-yl)-6-(1H-pyrazol-4-yl) picolinamide]	< 0.05
Cc1cc(-c2nc(C(=O)Nc3cc4cn(C5CCCC5)nc4cc3N3CCOCC3)co2)ccn1 [Example 8, N-(2-cyclopentyl-6-morpholino-2H-indazol-5-yl)-2-(2-methylpyridin-4-yl) oxazole-4-carboxamide]	< 0.05
Nc1ccc(-c2cccc(C(=O)Nc3cc4cn(C5CCCC5)nc4cc3N3CCOCC3)n2)cn1 [Example 9, 6′-amino-N-(2-cyclopentyl-6-morpholino-2H-indazol-5-yl)-[2,3′-bipyridine]-6-carboxamide 2,2,2-trifluoroacetate]	< 0.05
Cc1cc(-c2nc(C(=O)Nc3cc4cn(C)nc4cc3-c3cccc(F)c3)co2)ccn1 [Example 10, N-(6-(3-fluorophenyl)-2-methyl-2H-indazol-5-yl)-2-(2-methylpyridin-4-yl)oxazole-4-carboxamide]	< 0.05
Cc1cc(-c2nc(C(=O)Nc3cc4cn(C)nc4cc3C3CCCCC3)co2)ccn1 [Example 11, N-(6-cyclohexyl-2-methyl-2H-indazol-5-yl)-2-(2-methylpyridin-4-yl)oxazole-4-carboxamide hydrochloride]	< 0.05
Cn1cc2cc(NC(=O)c3cccc(-c4ccc(F)nc4)n3)c(N3CCCCC3)cc2n1 [Example 12, 6′-fluoro-N-(2-methyl-6-(piperidin-1-yl)-2H-indazol-5-yl)-[2,3′-bipyridine]-6-carboxamide hydrochloride]	< 0.05
Cn1cc2cc(NC(=O)c3cccc(-c4cn[nH]c4)n3)c(C3CCCCC3)cc2n1 [Example 13, N-(6-cyclohexyl-2-methyl-2H-indazol-5-yl)-6-(1H-pyrazol-4-yl)picolinamide hydrochloride]	< 0.05
Cn1cc2cc(NC(=O)c3cccc(-c4cccnc4F)n3)c(N3CCCCC3)cc2n1 [Example 14, 2′-fluoro-N-(2-methyl-6-(piperidin-1-yl)-2H-indazol-5-yl)-[2,3′-bipyridine]-6-carboxamide]	< 0.05
Cn1cc2cc(NC(=O)c3coc(-c4ccnc(Cl)c4)n3)c(N3CCCCC3)cc2n1 [Example 15, 2-(2-chloropyridin-4-yl)-N-(2-methyl-6-(piperidin-1-yl)-2H-indazol-5-yl)oxazole-4-carboxamide hydrochloride]	< 0.05
Cc1cc(-c2nc(C(=O)Nc3cc4cn(C)nc4cc3C3CC3)co2)ccn1 [Example 16, N-(6-cyclopropyl-2-methyl-2H-indazol-5-yl)-2-(2-methylpyridin-4-yl)oxazole-4-carboxamide hydrochloride]	< 0.05
Cn1cc(-c2cccc(C(=O)Nc3cc4cnn(C5CCCC5)c4cc3C3CC3)n2)cn1 [Example 17, N-(1-cyclopentyl-6-cyclopropyl-1H-indazol-5-yl)-6-(1-methyl-1H-pyrazol-4-yl)picolinamide]	> 0.1
Cn1cc(-c2cccc(C(=O)Nc3cc4cn(C5CCCC5)nc4cc3C3CC3)n2)cn1 [Example 18, N-(2-cyclopentyl-6-cyclopropyl-2H-indazol-5-yl)-6-(1-methyl-1H-pyrazol-4-yl)picolinamide]	< 0.05
Cn1cc(-c2cccc(C(=O)Nc3cc4cn(C)nc4cc3N3CCCCC3)n2)cn1 [Example 19, 6-(1-methyl-1H-pyrazol-4-yl)-N-(2-methyl-6-(piperidin-1-yl)-2H-indazol-5-yl)picolinamide]	< 0.05
COc1ccc(-c2nc(C(=O)Nc3cc4cn(C5CCCC5)nc4cc3C3CC3)co2)cn1 [Example 20, N-(2-cyclopentyl-6-cyclopropyl-2H-indazol-5-yl)-2-(6-methoxypyridin-3-yl)oxazole-4-carboxamide]	< 0.05
COc1ccc(-c2nc(C(=O)Nc3cc4cn(C)nc4cc3N3CCCCC3)co2)cn1 [Example 21, 2-(6-methoxypyridin-3-yl)-N-(2-methyl-6-(piperidin-1-yl)-2H-indazol-5-yl)oxazole-4-carboxamide]	< 0.05
